Measurements from patent US8993574B2, “Pyrrole antifungal agents” (F2G Ltd, priority 2008, dated 2015).
In brackets after ≈: the same amount, converted by molar mass.

How the values were obtained:
Assay type in all cases: cell-based
Aspergillus flavus [1] = assay: MIC, YAG medium; conditions: 24 h at 35° C, MIC banded into grades; for MIC: Aspergillus flavus, 24 h, read-out: MIC grade, A. flavus
Procedure, shortened: (§1)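 MICs (mg/L) derive from the lowest compound concentration suppressing spore outgrowth by >70% against a drug-free well, by OD 485 nm. Conditions: YAG medium, 1−2×10^4 cfu/mL, 24 h, 35° C, two-fold dilutions from 50 mg/L.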

[2] = test system: Aspergillus fumigatus AF210; assay: MIC, YAG medium; conditions: 24 h at 35° C, MIC banded into grades; for MIC: Aspergillus fumigatus, read-out: MIC grade, A. fumigatus 210
Procedure, shortened: as §1

[3] = test system: Aspergillus fumigatus AF293; assay: MIC, YAG medium; conditions: 24 h at 35° C, MIC banded into grades; for MIC: Aspergillus fumigatus, read-out: MIC grade, A. fumigatus
Procedure, shortened: as §1

Aspergillus niger [4] = assay: MIC, YAG medium; conditions: 24 h at 35° C, MIC banded into grades; for MIC: Aspergillus niger, read-out: MIC grade, A. niger
Procedure, shortened: as §1

Aspergillus terreus AT49 [5] = assay: MIC, YAG medium; conditions: 24 h at 35° C, MIC banded into grades; for MIC: Aspergillus terreus, read-out: MIC grade, A. terreus 49
Procedure, shortened: as §1

Aspergillus terreus AT4 [6] = assay: MIC, YAG medium; conditions: 24 h at 35° C, MIC banded into grades; for MIC: Aspergillus terreus, read-out: MIC grade, A. terreus
Procedure, shortened: as §1

Aspergillus flavus [7] = assay: MIC, RPMI medium; conditions: MIC banded into grades; for MIC: Aspergillus flavus, read-out: MIC grade, A. flavus
Procedure, shortened: (§2)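 MIC taken as lowest drug level inhibiting growth by >80% relative to drug-free wells, read as OD at 485 nm after 24-48 h at 35° C. Organisms at 1−2×10^4 cfu/mL in RPMI (2% glucose, 0.135 M MOPS, pH 7.0) exposed to doubling dilutions spanning 50-0.05 mg/L.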

[8] = test system: Aspergillus fumigatus AF210; assay: MIC, RPMI medium; conditions: for MIC grade, A. fumigatus 210: MIC banded into grades; for MIC: Aspergillus fumigatus, AF210, MIC banded into grades, read-out: MIC grade, A. fumigatus 210
Procedure, shortened: as §2

[9] = test system: Aspergillus fumigatus AF293; assay: MIC, RPMI medium; conditions: for MIC grade, A. fumigatus: MIC banded into grades; for MIC: Aspergillus fumigatus, AF293, MIC banded into grades, read-out: MIC grade, A. fumigatus
Procedure, shortened: as §2

Aspergillus niger [10] = assay: MIC, RPMI medium; conditions: MIC banded into grades; for MIC: Aspergillus niger, read-out: MIC grade, A. niger
Procedure, shortened: as §2

Aspergillus terreus AT49 [11] = assay: MIC, RPMI medium; conditions: for MIC grade, A. terreus 49: MIC banded into grades; for MIC: Aspergillus terreus, AT49, MIC banded into grades, read-out: MIC grade, A. terreus 49
Procedure, shortened: as §2

Aspergillus terreus AT4 [12] = assay: MIC, RPMI medium; conditions: for MIC grade, A. terreus: MIC banded into grades; for MIC: Aspergillus terreus, AT4, MIC banded into grades, read-out: MIC grade, A. terreus
Procedure, shortened: as §2

Compound	MIC (Aspergillus flavus [1])	MIC [2]	MIC [3]	MIC (Aspergillus niger [4])	MIC (Aspergillus terreus AT49 [5])	MIC (Aspergillus terreus AT4 [6])	MIC (Aspergillus flavus [7])	MIC [8]	MIC [9]	MIC (Aspergillus niger [10])	MIC (Aspergillus terreus AT49 [11])	MIC (Aspergillus terreus AT4 [12])	also measured
Cc1cc(C)nc(N2CCN(c3ccc(NC(=O)C(=O)c4c(-c5ccccc5)cc(C)n4CC(=O)OC(C)C)cc3)CC2)c1 [Example 77, (2-{4-[4-(4,6-Dimethyl-pyridin-2-yl)-piperazin-1-yl]-phenylaminooxalyl}-5-methyl-3-phenyl-pyrrol-1-yl)-acetic acid isopropyl ester]													MIC grade, A. flavus (Aspergillus flavus [1]): 1 (a grade of 1 represents an MIC of greater than 10 mg/L); MIC grade, A. fumigatus 210 [2]: 3 (A grade of 3 represents an MIC of less than 1 mg/L); MIC grade, A. fumigatus [3]: 3 (A grade of 3 represents an MIC of less than 1 mg/L); MIC grade, A. niger (Aspergillus niger [4]): 2 (A grade of 2 represents an MIC of from 1 to 10 mg/L); MIC grade, A. terreus 49 (Aspergillus terreus AT49 [5]): 2 (A grade of 2 represents an MIC of from 1 to 10 mg/L); MIC grade, A. terreus (Aspergillus terreus AT4 [6]): 2 (A grade of 2 represents an MIC of from 1 to 10 mg/L); MIC grade, A. flavus (Aspergillus flavus [7]): 1 (a grade of 1 represents an MIC of greater than 10 mg/L); MIC grade, A. fumigatus 210 [8]: 2 (A grade of 2 represents an MIC of from 1 to 10 mg/L); MIC grade, A. fumigatus [9]: 2 (A grade of 2 represents an MIC of from 1 to 10 mg/L); MIC grade, A. niger (Aspergillus niger [10]): 1 (a grade of 1 represents an MIC of greater than 10 mg/L); MIC grade, A. terreus 49 (Aspergillus terreus AT49 [11]): 1 (a grade of 1 represents an MIC of greater than 10 mg/L); MIC grade, A. terreus (Aspergillus terreus AT4 [12]): 1 (a grade of 1 represents an MIC of greater than 10 mg/L)
Cc1cc(C)nc(N2CCN(c3ccc(NC(=O)C(=O)c4c(-c5ccccc5)c(F)c(C)n4C)cc3)CC2)c1 [Example 90, N-{4-[4-(4,6-Dimethyl-pyridin-2-yl)-piperazin-1-yl]-phenyl}-2-(4-fluoro-1,5-dimethyl-3-phenyl-1H-pyrrol-2-yl)-2-oxo-acetamide]	< 1 µg/mL	< 1 µg/mL	< 1 µg/mL	< 1 µg/mL	< 1 µg/mL	< 1 µg/mL	< 1 µg/mL	< 1 µg/mL	< 1 µg/mL	< 1 µg/mL	< 1 µg/mL	< 1 µg/mL	
COCCCCn1c(C)cc(-c2ccccc2)c1C(=O)C(=O)Nc1ccc(N2CCN(c3cc(C)cc(C)n3)CC2)cc1 [Example 142, N-{4-[4-(4,6-Dimethyl-pyridin-2-yl)-piperazin-1-yl]-phenyl}-2-[1-(4-methoxy-butyl)-5-methy-3-phenyl-1H-pyrrol-2-yl]-2-oxo-acetamide]													MIC grade, A. flavus (Aspergillus flavus [1]): 3 (A grade of 3 represents an MIC of less than 1 mg/L); MIC grade, A. fumigatus 210 [2]: 3 (A grade of 3 represents an MIC of less than 1 mg/L); MIC grade, A. fumigatus [3]: 3 (A grade of 3 represents an MIC of less than 1 mg/L); MIC grade, A. niger (Aspergillus niger [4]): 3 (A grade of 3 represents an MIC of less than 1 mg/L); MIC grade, A. terreus 49 (Aspergillus terreus AT49 [5]): 3 (A grade of 3 represents an MIC of less than 1 mg/L); MIC grade, A. terreus (Aspergillus terreus AT4 [6]): 3 (A grade of 3 represents an MIC of less than 1 mg/L); MIC grade, A. flavus (Aspergillus flavus [7]): 3 (A grade of 3 represents an MIC of less than 1 mg/L); MIC grade, A. fumigatus 210 [8]: 3 (A grade of 3 represents an MIC of less than 1 mg/L); MIC grade, A. fumigatus [9]: 3 (A grade of 3 represents an MIC of less than 1 mg/L); MIC grade, A. niger (Aspergillus niger [10]): 3 (A grade of 3 represents an MIC of less than 1 mg/L); MIC grade, A. terreus 49 (Aspergillus terreus AT49 [11]): 3 (A grade of 3 represents an MIC of less than 1 mg/L); MIC grade, A. terreus (Aspergillus terreus AT4 [12]): 3 (A grade of 3 represents an MIC of less than 1 mg/L)
Cc1cc(C)nc(N2CCN(c3ccc(NC(=O)C(=O)c4c(-c5ccccc5)cc(C)n4C)cc3Cl)CC2)c1 [Example 11, N-{3-Chloro-4-[4-(4,6-dimethyl-pyridin-2-yl)-piperazin-1-yl]-phenyl}-2-(1,5-dimethyl-3-phenyl-1H-pyrrol-2-yl)-2-oxo-acetamide]	< 1 µg/mL	< 1 µg/mL	< 1 µg/mL	< 1 µg/mL	< 1 µg/mL	< 1 µg/mL	< 1 µg/mL	< 1 µg/mL	< 1 µg/mL	< 1 µg/mL	< 1 µg/mL	< 1 µg/mL	
COCCn1c(C)cc(-c2ccccc2)c1C(=O)C(=O)Nc1ccc(N2CCN(c3cc(C)cc(C)n3)CC2)cc1Cl [Example 26, N-{2-Chloro-4-[4-(4,6-dimethyl-pyridin-2-yl)-piperazin-1-yl]-phenyl}-2-[1-(2-methoxy-ethyl)-5-methyl-3-phenyl-1H-pyrrol-2-yl]-2-oxo-acetamide]		< 1 µg/mL	< 1 µg/mL	< 1 µg/mL	< 1 µg/mL	< 1 µg/mL	> 10 µg/mL	< 1 µg/mL	< 1 µg/mL	< 1 µg/mL	> 10 µg/mL	> 10 µg/mL	MIC grade, A. flavus (Aspergillus flavus [1]): 1 (a grade of 1 represents an MIC of greater than 10 mg/L)
Cc1cc(-c2ccccc2)c(C(=O)C(=O)Nc2ccc(N3CCN(C(C)C(C)C)CC3)cc2)n1C (stereo not drawn) [Example 150, 2-(1,5-Dimethyl-3-phenyl-1H-pyrrol-2-yl)-N-{4-[4-(1,2-dimethyl-propyl)-piperazin-1-yl]-phenyl}-2-oxo-acetamide]	< 1 µg/mL	< 1 µg/mL	< 1 µg/mL	< 1 µg/mL	< 1 µg/mL	< 1 µg/mL	< 1 µg/mL	< 1 µg/mL	< 1 µg/mL	< 1 µg/mL	< 1 µg/mL	< 1 µg/mL	
Cc1cc(C)nc(N2CCN(c3ccc(NC(=O)C(=O)c4c(-c5ccccc5)cc(C)n4C)cc3O)CC2)c1 [Example 22, 2-(1,5-Dimethyl-3-phenyl-1H-pyrrol-2-yl)-N-{4-[4-(4,6-dimethyl-pyridin-2-yl)-piperazin-1-yl]-3-hydroxy-phenyl}-2-oxo-acetamide]	< 1 µg/mL	< 1 µg/mL	< 1 µg/mL	< 1 µg/mL	< 1 µg/mL	< 1 µg/mL	< 1 µg/mL	< 1 µg/mL	< 1 µg/mL	< 1 µg/mL	< 1 µg/mL	< 1 µg/mL	

Continued, in another order:

MIC (Aspergillus flavus [1])	MIC [2]	MIC [3]	MIC (Aspergillus niger [4])	MIC (Aspergillus terreus AT49 [5])	MIC (Aspergillus terreus AT4 [6])	MIC (Aspergillus flavus [7])	MIC [8]	MIC [9]	MIC (Aspergillus niger [10])	MIC (Aspergillus terreus AT49 [11])	MIC (Aspergillus terreus AT4 [12])	Compound	also measured
< 1 µg/mL	1 to 10 µg/mL (≈ 2.71 to 27.1 µM)	1 to 10 µg/mL (≈ 2.71 to 27.1 µM)	1 to 10 µg/mL (≈ 2.71 to 27.1 µM)	< 1 µg/mL	< 1 µg/mL	1 to 10 µg/mL (≈ 2.71 to 27.1 µM)	> 10 µg/mL	> 10 µg/mL	1 to 10 µg/mL (≈ 2.71 to 27.1 µM)	1 to 10 µg/mL (≈ 2.71 to 27.1 µM)	1 to 10 µg/mL (≈ 2.71 to 27.1 µM)	Cc1cc(-c2ccccc2)c(C(=O)C(=O)Nc2cccc3ncccc23)n1C [Example 32, 2-(1,5-Dimethyl-3-phenyl-1H-pyrrol-2-yl)-2-oxo-N-quinolin-5-yl-acetamide]	
< 1 µg/mL	< 1 µg/mL	< 1 µg/mL	< 1 µg/mL	< 1 µg/mL	< 1 µg/mL	< 1 µg/mL	1 to 10 µg/mL (≈ 2.71 to 27.1 µM)	1 to 10 µg/mL (≈ 2.71 to 27.1 µM)	1 to 10 µg/mL (≈ 2.71 to 27.1 µM)	< 1 µg/mL	< 1 µg/mL	Cc1cc(-c2ccccc2)c(C(=O)C(=O)Nc2cnc3ccccc3c2)n1C [Example 37, 2-(1,5-Dimethyl-3-phenyl-1H-pyrrol-2-yl)-2-oxo-N-quinolin-3-yl-acetamide]	
< 1 µg/mL	< 1 µg/mL	1 to 10 µg/mL (≈ 2.57 to 25.7 µM)	1 to 10 µg/mL (≈ 2.57 to 25.7 µM)	< 1 µg/mL	< 1 µg/mL	< 1 µg/mL	1 to 10 µg/mL (≈ 2.57 to 25.7 µM)	< 1 µg/mL	< 1 µg/mL	< 1 µg/mL	< 1 µg/mL	Cc1cc(-c2ccccc2)c(C(=O)C(=O)Nc2ccc(N3CCCC3)nc2)n1C [Example 99, 2-(1,5-Dimethyl-3-phenyl-1H-pyrrol-2-yl)-2-oxo-N-(6-pyrrolidin-1-yl-pyridin-3-yl)-acetamide]	
< 1 µg/mL	1 to 10 µg/mL (≈ 2.14 to 21.4 µM)	1 to 10 µg/mL (≈ 2.14 to 21.4 µM)	> 10 µg/mL	< 1 µg/mL	> 10 µg/mL	1 to 10 µg/mL (≈ 2.14 to 21.4 µM)	> 10 µg/mL	1 to 10 µg/mL (≈ 2.14 to 21.4 µM)	> 10 µg/mL	1 to 10 µg/mL (≈ 2.14 to 21.4 µM)	1 to 10 µg/mL (≈ 2.14 to 21.4 µM)	Cc1cc(-c2ccccc2)c(C(=O)C(=O)Nc2cccc3c(N4CCN(C)CC4)cccc23)n1C [Example 49, 2-(1,5-Dimethyl-3-phenyl-1H-pyrrol-2-yl)-N-[5-(4-methyl-piperazin-1-yl)-naphthalen-1-yl]-2-oxo-acetamide]	
< 1 µg/mL	1 to 10 µg/mL (≈ 2.77 to 27.7 µM)	< 1 µg/mL	< 1 µg/mL	< 1 µg/mL	< 1 µg/mL	< 1 µg/mL	1 to 10 µg/mL (≈ 2.77 to 27.7 µM)	1 to 10 µg/mL (≈ 2.77 to 27.7 µM)	1 to 10 µg/mL (≈ 2.77 to 27.7 µM)	< 1 µg/mL	< 1 µg/mL	Cc1cc(-c2ccccc2)c(C(=O)C(=O)Nc2cccc3c2CCO3)n1C [Example 23, N-(2,3-Dihydro-benzofuran-4-yl)-2-(1,5-dimethyl-3-phenyl-1H-pyrrol-2-yl)-2-oxo-acetamide]	
